This note sets out measurements from US20250332173A1, “COMPOUNDS AND METHODS FOR MODULATING NUCLEIC ACID SPLICING” (REMIX THERAPEUTICS INC., priority 2021, published 2025).

Read-outs that look alike come from different tables or passages of the source.

One experiment relates to HTT mRNA. Kind of experiment: RT-qPCR splicing assay, HTT canonical junction (CJ) and alternative junction (AJ) mRNA. The conditions noted are these: Homo sapiens; for AC50: increase in HTT alternative junction (AJ) mRNA, read-out: HTT AJ AC50. It counts as cell-based, human. The method in brief: (§1)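 A673 or K562 cells were treated for 24 h at 37 °C with an 11-point 3-fold compound dilution series (top final concentration 10 uM, DMSO ≤0.25%). After lysis, one-step TaqMan RT-qPCR quantified junction transcripts, normalized to PPIA for A673 or to GAPDH/GUSB for K562.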
Background: Quantitative PCR measures a nucleic acid by following its amplification.

The subject of another experiment is MYB mRNA. Kind of experiment: RT-qPCR splicing assay, MYB canonical junction (CJ) and alternative junction (AJ) mRNA. It counts as cell-based, human. The note with it: Homo sapiens; for AC50: increase in MYB alternative junction (AJ) mRNA, read-out: MYB AJ AC50. The method in brief:
as §1

The subject of another experiment is Target C. Put plainly: RT-qPCR splicing assay panel, Target C canonical junction (CJ) mRNA. The conditions noted are these: Homo sapiens; canonical junction qPCR panel, Table 5; read-out: Target C (decrease in CJ mRNA levels, IC50). Format: cell-based, human. In short, it runs like this:
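Canonical-junction transcript levels in compound-treated A673 or K562 cells (24 h, up to 10 uM final) were determined from lysates by RT-qPCR with housekeeping-gene normalization.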

Experiment [1] has as its system K562 (human chronic myelogenous leukemia) cells. Kind of experiment: Cell Titer Glo 2.0 cell viability assay. The conditions noted are these: Homo sapiens, K562, 72 h, K562 cells, 72 hours, Cell Titer Glo 2.0; read-out: K562 GI50. Format: cell-based. (In general: In ATP-based viability assays light output follows the ATP content of the culture.)
Where [2] appears, read: decrease in HTT canonical junction (CJ) mRNA, RT-qPCR, read-out: HTT CJ IC50.
[3] abbreviates: canonical junction qPCR panel, Table 5, read-out: HTT (decrease in CJ mRNA levels, IC50).
Where [4] appears, read: canonical junction qPCR panel, Table 5, read-out: MYB (decrease in CJ mRNA levels, IC50).
Setting [5] is: decrease in MYB canonical junction (CJ) mRNA, RT-qPCR, read-out: MYB CJ IC50.

As a reminder, the IC50 is the concentration at which inhibition is half-maximal. In general, AC50 refers to the concentration at which the activity in the assay is half-maximal. Broadly, the GI50 is the concentration at which growth is held to half of that of the control. With `Cc1c(O)c(-c2ccc3c(=O)n(C4CC(C)NC(C)C4)ccc3n2)cc2cn(C)nc12` (stereo not shown) [Compound 1447, 6-(2,6-dimethyl-4-piperidyl)-2-(6-hydroxy-2,7-dimethyl-indazol-5-yl)-1,6-naphthyridin-5-one], the IC50 with HTT mRNA (setting [2]) is 100 to 1000 nM; in the experiment with HTT mRNA (setting [3]), 100 to 1000 nM; with MYB mRNA (setting [4]), 100 to 1000 nM; with MYB mRNA (setting [5]) it was 100 to 1000 nM; in the experiment with Target C, 1000 to 10000 nM. The half-maximal activity concentration (AC50) with HTT mRNA (RT-qPCR) and with MYB mRNA (RT-qPCR) was 100 to 1000 nM throughout. Moreover, the GI50 in experiment [1] is 100 to 1000 nM.
For the compound `Cc1cn2cc(-c3cc(O)c4c(=O)n(C5CCNCC5)ccc4n3)cc(F)c2n1` [Compound 1448], the IC50 in the experiment with HTT mRNA (setting [2]) fell in the range of 1000 to 10000 nM; with HTT mRNA (setting [3]) it was 100 to 1000 nM; in the experiment on MYB mRNA (setting [4]), 100 to 1000 nM; in the experiment on MYB mRNA (setting [5]), 100 to 1000 nM; with Target C, 1000 to 10000 nM. Also, the half-maximal activity concentration (AC50) in the experiment on HTT mRNA (RT-qPCR) and with MYB mRNA (RT-qPCR) was 100 to 1000 nM each time. Besides, the GI50 in experiment [1] lay within 100 to 1000 nM.
For the compound `Cc1c(O)c(-c2ccc3c(=O)n([C@H]4CCNC4)ccc3n2)cc2cn(C)nc12` [Compound 1449, 2-(6-hydroxy-2,7-dimethyl-indazol-5-yl)-6-[(3S)-pyrrolidin-3-yl]-1,6-naphthyridin-5-one], the IC50 is 1000 to 10000 nM with HTT mRNA (setting [2]); 1000 to 10000 nM with HTT mRNA (setting [3]); 100 to 1000 nM with MYB mRNA (setting [4]); 100 to 1000 nM in the experiment on MYB mRNA (setting [5]); more than 10000 nM in the experiment on Target C. Further, the AC50 was 1000 to 10000 nM with HTT mRNA (RT-qPCR) and 100 to 1000 nM with MYB mRNA (RT-qPCR). Besides, the GI50 in experiment [1] lay within 100 to 1000 nM.
As to `Cc1c(O)c(-c2ccc3c(=O)n([C@@H]4CCNC4)ccc3n2)cc2cn(C)nc12` [Compound 1450, 2-(6-hydroxy-2,7-dimethyl-indazol-5-yl)-6-[(3R)-pyrrolidin-3-yl]-1,6-naphthyridin-5-one], the half-maximal inhibitory concentration (IC50) in the experiment on HTT mRNA (setting [2]) was 1000 to 10000 nM; in the experiment with HTT mRNA (setting [3]), 1000 to 10000 nM; in the experiment with MYB mRNA (setting [4]), 100 to 1000 nM; in the experiment with MYB mRNA (setting [5]), 100 to 1000 nM; in the experiment on Target C, more than 10000 nM. For the same compound, the concentration at half-maximal activity (AC50) with HTT mRNA (RT-qPCR) lay within 1000 to 10000 nM; with MYB mRNA (RT-qPCR), 100 to 1000 nM. Further, in experiment [1], the 50% growth inhibitory concentration (GI50) lay in the range of 100 to 1000 nM.
Turning to `Cn1cc2cc(-c3ccc4c(=O)n([C@H]5CCNC5)ccc4n3)c(O)c(F)c2n1` [Compound 1451, 2-(7-fluoro-6-hydroxy-2-methyl-indazol-5-yl)-6-[(3S)-pyrrolidin-3-yl]-1,6-naphthyridin-5-one], the half-inhibitory concentration (IC50) in the experiment with HTT mRNA (setting [2]) is 100 to 1000 nM; in the experiment on HTT mRNA (setting [3]), 100 to 1000 nM; in the experiment with MYB mRNA (setting [4]), less than 100 nM; in the experiment on MYB mRNA (setting [5]), 100 to 1000 nM; in the experiment with Target C, 100 to 1000 nM. In addition, the concentration at half-maximal activity (AC50) with HTT mRNA (RT-qPCR) is 100 to 1000 nM; in the experiment on MYB mRNA (RT-qPCR), less than 100 nM. The GI50 in experiment [1] fell in the range of 100 to 1000 nM.
For `Cn1cc2cc(-c3ccc4c(=O)n([C@@H]5CCNC5)ccc4n3)c(O)c(F)c2n1` [Compound 1452, 2-(7-fluoro-6-hydroxy-2-methyl-indazol-5-yl)-6-[(3R)-pyrrolidin-3-yl]-1,6-naphthyridin-5-one], the IC50 with HTT mRNA (setting [2]) is 100 to 1000 nM; with HTT mRNA (setting [3]), 100 to 1000 nM; with MYB mRNA (setting [4]), less than 100 nM; in the experiment with MYB mRNA (setting [5]), 100 to 1000 nM; in the experiment on Target C it was 100 to 1000 nM. In addition, the figures for the AC50 in the experiment with HTT mRNA (RT-qPCR) and in the experiment on MYB mRNA (RT-qPCR) were 100 to 1000 nM and less than 100 nM, respectively. In addition, the 50% growth inhibitory concentration (GI50) in experiment [1] fell in the range of 100 to 1000 nM.
In the case of `Cc1c(O)c(-c2ncc3c(=O)n([C@@H]4C[C@@H](C)N[C@@H](C)C4)ccc3n2)cc2cn(C)nc12` [Compound 1453, 6-[(2S,6R)-2,6-dimethyl-4-piperidyl]-2-(6-hydroxy-2,7-dimethyl-indazol-5-yl)pyrido[4,3-d]pyrimidin-5-one], the half-inhibitory concentration (IC50) in the experiment with HTT mRNA (setting [2]) is more than 10000 nM; with HTT mRNA (setting [3]) it was 1000 to 10000 nM; in the experiment with MYB mRNA (setting [4]) it was 100 to 1000 nM; in the experiment with MYB mRNA (setting [5]), 1000 to 10000 nM; in the experiment on Target C, more than 10000 nM. Besides, the half-maximal activity concentration (AC50) in the experiment with HTT mRNA (RT-qPCR) was in the range of 1000 to 10000 nM; in the experiment with MYB mRNA (RT-qPCR), 100 to 1000 nM. In addition, in experiment [1], the 50% growth inhibitory concentration (GI50) lay in the range of 100 to 1000 nM.
In the case of `Cc1c(O)c(-c2ncc3c(=O)n(C4C[C@@H](C)N[C@H](C)C4)ccc3n2)cc2cn(C)nc12` (stereo partly drawn) [Compound 1454, 6-[(2R,6R)-2,6-dimethyl-4-piperidyl]-2-(6-hydroxy-2,7-dimethyl-indazol-5-yl)pyrido[4,3-d]pyrimidin-5-one], the half-maximal inhibitory concentration (IC50) was in the range of 1000 to 10000 nM with HTT mRNA (setting [2]); 100 to 1000 nM with HTT mRNA (setting [3]); 100 to 1000 nM with MYB mRNA (setting [4]); 100 to 1000 nM in the experiment on MYB mRNA (setting [5]); 1000 to 10000 nM with Target C. Besides, the AC50 in the experiment with HTT mRNA (RT-qPCR) and in the experiment on MYB mRNA (RT-qPCR) was 100 to 1000 nM each time. For the same compound, in experiment [1], the GI50 is 100 to 1000 nM.
In the case of `Cc1c(O)c(-c2ncc3c(=O)n(C4C[C@H](C)N[C@@H](C)C4)ccc3n2)cc2cn(C)nc12` (stereo partly drawn) [Compound 1455, 6-[(2S,6S)-2,6-dimethyl-4-piperidyl]-2-(6-hydroxy-2,7-dimethyl-indazol-5-yl)pyrido[4,3-d]pyrimidin-5-one], the IC50 was 100 to 1000 nM with HTT mRNA (setting [2]); 100 to 1000 nM in the experiment with HTT mRNA (setting [3]); less than 100 nM with MYB mRNA (setting [4]); less than 100 nM with MYB mRNA (setting [5]); 1000 to 10000 nM in the experiment on Target C. Besides, the AC50 is 100 to 1000 nM with HTT mRNA (RT-qPCR) and less than 100 nM with MYB mRNA (RT-qPCR). Further, the GI50 in experiment [1] is less than 100 nM.
Turning to `Cc1cn2cc(-c3cc(F)c4c(=O)n([C@@H]5CNC[C@H]5F)ccc4c3)cc(F)c2n1` [Compound 1456], the IC50 is more than 10000 nM with HTT mRNA (setting [2]); more than 10000 nM in the experiment on HTT mRNA (setting [3]); 100 to 1000 nM with MYB mRNA (setting [4]); 100 to 1000 nM in the experiment on MYB mRNA (setting [5]); more than 10000 nM in the experiment on Target C. In addition, the AC50 in the experiment with HTT mRNA (RT-qPCR) was more than 10000 nM; with MYB mRNA (RT-qPCR), 100 to 1000 nM. Moreover, in experiment [1], the GI50 lay within 1000 to 10000 nM.
For the compound `Cc1cn2cc(-c3ncc4c(=O)n([C@@H]5CCNC6(CC6)C5)ccc4n3)cc(F)c2n1` [Compound 1457, 6-[(7R)-4-azaspiro[2.5]octan-7-yl]-2-(8-fluoro-2-methyl-imidazo[1,2-a]pyridin-6-yl)pyrido[4,3-d]pyrimidin-5-one], the half-inhibitory concentration (IC50) with HTT mRNA (setting [2]) is 1000 to 10000 nM; in the experiment on HTT mRNA (setting [3]) it was 100 to 1000 nM; with MYB mRNA (setting [4]), 100 to 1000 nM; in the experiment with MYB mRNA (setting [5]), 100 to 1000 nM; in the experiment on Target C it was 1000 to 10000 nM. The AC50 in the experiment with HTT mRNA (RT-qPCR) and in the experiment with MYB mRNA (RT-qPCR) was 100 to 1000 nM throughout. The GI50 in experiment [1] is 100 to 1000 nM.
